Laboratory results reported in PubChem BioAssay AID1259407 (Chemical Carcinogenesis Research Information System (CCRIS), 2018).
Active and inactive are the calls of the source. How the calls were made is not given here.

Test system: CCRIS mutagenicity, Ames/micronucleus/aberration tests
Experiment: CCRIS mutagenicity studies
[1] = Test System: AMES SALMONELLA TYPHIMURIUM, Strain/Indicator: TA100, Metabolic Activation: NONE, Method: STANDARD PLATE
[2] = Test System: AMES SALMONELLA TYPHIMURIUM, Strain/Indicator: TA98, Metabolic Activation: NONE, Method: PREINCUBATION
[3] = Test System: AMES SALMONELLA TYPHIMURIUM, Strain/Indicator: TA100, Metabolic Activation: NONE, Method: PREINCUBATION
[4] = Test System: AMES SALMONELLA TYPHIMURIUM, Strain/Indicator: TA1535, Metabolic Activation: NONE, Method: PREINCUBATION
[5] = Test System: AMES SALMONELLA TYPHIMURIUM, Strain/Indicator: TA1537, Metabolic Activation: NONE, Method: PREINCUBATION

Measured: mutagenic call

CCCC(=O)Nc1snc2cc(Cl)ccc12
inactive: [1] inactive; negative | Test System: AMES SALMONELLA TYPHIMURIUM, Strain/Indicator: TA100, Metabolic Activation: S-9, Method: STANDARD PLATE inactive; negative | Test System: AMES SALMONELLA TYPHIMURIUM, Strain/Indicator: TA1537, Metabolic Activation: NONE, Method: STANDARD PLATE inactive; negative | Test System: AMES SALMONELLA TYPHIMURIUM, Strain/Indicator: TA1537, Metabolic Activation: S-9, Method: STANDARD PLATE inactive; negative

O=c1c(O)c2c(c3c1ccc1c3cccn1O)O2
inactive: [1] inactive; negative

OC(c1ccc(Cl)cc1)(c1ccc(Cl)cc1)C1CC1
inactive: Test System: AMES SALMONELLA TYPHIMURIUM, Strain/Indicator: TA97, Metabolic Activation: NONE, Method: STANDARD PLATE inactive; negative | Test System: AMES SALMONELLA TYPHIMURIUM, Strain/Indicator: TA97, Metabolic Activation: RAT, LIVER, S-9, AROCLOR 1254, Method: STANDARD PLATE inactive; negative | Test System: AMES SALMONELLA TYPHIMURIUM, Strain/Indicator: TA98, Metabolic Activation: NONE, Method: STANDARD PLATE inactive; negative | Test System: AMES SALMONELLA TYPHIMURIUM, Strain/Indicator: TA98, Metabolic Activation: RAT, LIVER, S-9, AROCLOR 1254, Method: STANDARD PLATE inactive; negative | [1] inactive; negative | Test System: AMES SALMONELLA TYPHIMURIUM, Strain/Indicator: TA100, Metabolic Activation: RAT, LIVER, S-9, AROCLOR 1254, Method: STANDARD PLATE inactive; negative

CCN=NNCC
active: Test System: AMES SALMONELLA TYPHIMURIUM, Strain/Indicator: TA1535, Metabolic Activation: NONE, Method: STANDARD PLATE active; positive

NC(N)=NC(N)=NCCc1ccccc1
inactive: End Point: IN VITRO CHROMOSOMAL ABERRATIONS, Test System: CHO CELLS, Metabolic Activation: NONE inactive; negative | End Point: IN VITRO CHROMOSOMAL ABERRATIONS, Test System: CHO CELLS, Metabolic Activation: RAT, LIVER, S-9, PHENOBARBITAL AND BETA-NAPHTHOFLAVONE inactive; negative | Test System: AMES SALMONELLA TYPHIMURIUM, Strain/Indicator: TA98, Metabolic Activation: HAMSTER, LIVER, S-9, AROCLOR 1254 (10%), Method: PREINCUBATION inactive; negative | [2] inactive; negative | Test System: AMES SALMONELLA TYPHIMURIUM, Strain/Indicator: TA98, Metabolic Activation: RAT, LIVER, S-9, AROCLOR 1254 (10%), Method: PREINCUBATION inactive; negative | Test System: AMES SALMONELLA TYPHIMURIUM, Strain/Indicator: TA100, Metabolic Activation: HAMSTER, LIVER, S-9, AROCLOR 1254 (10%), Method: PREINCUBATION inactive; negative | [3] inactive; negative | Test System: AMES SALMONELLA TYPHIMURIUM, Strain/Indicator: TA100, Metabolic Activation: RAT, LIVER, S-9, AROCLOR 1254 (10%), Method: PREINCUBATION inactive; negative | Test System: AMES SALMONELLA TYPHIMURIUM, Strain/Indicator: TA1535, Metabolic Activation: HAMSTER, LIVER, S-9, AROCLOR 1254 (10%), Method: PREINCUBATION inactive; negative | [4] inactive; negative | Test System: AMES SALMONELLA TYPHIMURIUM, Strain/Indicator: TA1535, Metabolic Activation: RAT, LIVER, S-9, AROCLOR 1254 (10%), Method: PREINCUBATION inactive; negative | Test System: AMES SALMONELLA TYPHIMURIUM, Strain/Indicator: TA1537, Metabolic Activation: HAMSTER, LIVER, S-9, AROCLOR 1254 (10%), Method: PREINCUBATION inactive; negative | [5] inactive; negative | Test System: AMES SALMONELLA TYPHIMURIUM, Strain/Indicator: TA1537, Metabolic Activation: RAT, LIVER, S-9, AROCLOR 1254 (10%), Method: PREINCUBATION inactive; negative

CN(N=O)C(=O)Nc1ccccc1
active: End Point: IN VITRO CHROMOSOMAL ABERRATIONS, Test System: CHINESE HAMSTER V79-E CELLS, Metabolic Activation: NONE active; positive (structural changes)

O=C(O)C(F)(F)C(F)(Cl)C(F)(F)C(F)(Cl)C(F)(F)Cl (stereo unspecified)
inactive: [2] inactive; negative | Test System: AMES SALMONELLA TYPHIMURIUM, Strain/Indicator: TA98, Metabolic Activation: RAT, LIVER, S-9, Method: PREINCUBATION inactive; negative | [3] inactive; negative | Test System: AMES SALMONELLA TYPHIMURIUM, Strain/Indicator: TA100, Metabolic Activation: RAT, LIVER, S-9, Method: PREINCUBATION inactive; negative | [4] inactive; negative | Test System: AMES SALMONELLA TYPHIMURIUM, Strain/Indicator: TA1535, Metabolic Activation: RAT, LIVER, S-9, Method: PREINCUBATION inactive; negative | [5] inactive; negative | Test System: AMES SALMONELLA TYPHIMURIUM, Strain/Indicator: TA1537, Metabolic Activation: RAT, LIVER, S-9, Method: PREINCUBATION inactive; negative | Test System: AMES SALMONELLA TYPHIMURIUM, Strain/Indicator: TA1538, Metabolic Activation: NONE, Method: PREINCUBATION inactive; negative | Test System: AMES SALMONELLA TYPHIMURIUM, Strain/Indicator: TA1538, Metabolic Activation: RAT, LIVER, S-9, Method: PREINCUBATION inactive; negative | Test System: CHINESE HAMSTER OVARY, Strain/Indicator: CHO-K1-BH4 (HGPRT), Metabolic Activation: NONE, Method: STANDARD PLATE inactive; negative | Test System: CHINESE HAMSTER OVARY, Strain/Indicator: CHO-K1-BH4 (HGPRT), Metabolic Activation: RAT, LIVER, S-9, Method: STANDARD PLATE inactive; negative | Test System: UDS RODENT HEPATOCYTES, Strain/Indicator: THY INCORP (NON-S-PHASE), Metabolic Activation: NONE, Method: AUTORADIOGRAPHY inactive; negative

CCN(CC)c1ccc(C(=C2C=CC(=[N+](CC)CC)C=C2)c2ccccc2)cc1
active: Test System: AMES SALMONELLA TYPHIMURIUM, Strain/Indicator: TA100, Method: PREINCUBATION active; positive

O=[N+]([O-])c1cccc(Cl)c1F
active: End Point: IN VITRO CHROMOSOMAL ABERRATIONS, Test System: CHL CELLS, Metabolic Activation: RAT, LIVER, S-9, SODIUM PHENOBARBITAL AND 5,6-BENZOFLAVONE active; positive (structural changes)

Cc1cccc(C)c1[N+](=O)[O-]
inactive: [2] inactive; negative | Test System: AMES SALMONELLA TYPHIMURIUM, Strain/Indicator: TA98, Metabolic Activation: RAT, LIVER, S-9, KANECHLOR 500, Method: PREINCUBATION inactive; negative | [3] inactive; negative | Test System: AMES SALMONELLA TYPHIMURIUM, Strain/Indicator: TA100, Metabolic Activation: RAT, LIVER, S-9, KANECHLOR 500, Method: PREINCUBATION inactive; negative
